ChEMBL document CHEMBL1136431, “Preparation and pharmacological profile of 7-(alpha-azolylbenzyl)-1H-indoles and indolines as new aromatase inhibitors” (Bioorg Med Chem Lett, 2003)

Columns and labels:
[1] = biological target: T1, Cytochrome P450 17A1 (steroid 17-alpha-hydroxylase/17,20 lyase) (Rattus norvegicus, UniProt P11715); assay: Inhibition Cytochrome P450 17A1 of rat testicular microsomes at 2.5 uM with 25 uM progesterone; conditions: probe progesterone (25 uM)
T1 sequence (P11715 whole entry): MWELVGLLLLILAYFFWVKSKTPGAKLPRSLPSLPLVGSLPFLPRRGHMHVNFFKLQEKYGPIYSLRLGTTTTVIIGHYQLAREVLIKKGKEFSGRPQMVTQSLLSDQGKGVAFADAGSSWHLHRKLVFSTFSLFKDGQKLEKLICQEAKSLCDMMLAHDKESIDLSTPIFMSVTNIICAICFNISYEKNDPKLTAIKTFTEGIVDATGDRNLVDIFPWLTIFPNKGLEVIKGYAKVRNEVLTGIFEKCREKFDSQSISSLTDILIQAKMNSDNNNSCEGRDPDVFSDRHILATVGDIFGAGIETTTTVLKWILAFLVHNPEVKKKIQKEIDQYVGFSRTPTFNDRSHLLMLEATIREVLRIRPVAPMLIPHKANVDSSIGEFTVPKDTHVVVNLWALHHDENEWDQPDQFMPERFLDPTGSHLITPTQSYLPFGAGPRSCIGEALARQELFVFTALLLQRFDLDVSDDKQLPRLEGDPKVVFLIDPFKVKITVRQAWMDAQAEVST

[2] = biological target: T2, Aromatase (Homo sapiens, UniProt P11511)
T2 sequence (P11511 whole entry): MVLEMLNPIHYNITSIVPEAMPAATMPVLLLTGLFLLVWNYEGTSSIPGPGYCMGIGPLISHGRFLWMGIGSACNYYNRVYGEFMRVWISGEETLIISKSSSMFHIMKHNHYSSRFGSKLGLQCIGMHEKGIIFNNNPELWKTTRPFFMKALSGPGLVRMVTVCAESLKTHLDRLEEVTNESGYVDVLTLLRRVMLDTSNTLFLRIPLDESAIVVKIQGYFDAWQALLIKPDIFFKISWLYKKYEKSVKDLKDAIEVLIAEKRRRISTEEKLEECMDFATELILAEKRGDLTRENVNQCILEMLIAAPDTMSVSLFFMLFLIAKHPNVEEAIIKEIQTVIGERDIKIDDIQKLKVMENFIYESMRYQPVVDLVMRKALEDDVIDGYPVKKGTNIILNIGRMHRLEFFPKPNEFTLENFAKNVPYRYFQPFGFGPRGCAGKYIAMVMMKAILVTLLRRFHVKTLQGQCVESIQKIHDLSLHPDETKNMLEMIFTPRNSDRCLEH
Description: Inhibition of cytochrome P450 19A1 of human placental microsomes with [1-beta,2beta-3H]testosterone

[3] = biological target: T2, Aromatase; assay: In vitro inhibition of cytochrome P450 19A1 from human placental microsomes with 2.5 uM [1-beta,2beta-3H]testosterone
[4] = biological target: T2, Aromatase; assay: Relative potency as IC50 compared to aminoglutethimide IC50=[…] uM

Compound | inhibition at 2.5 µM [1] [%] | IC50 [2] [nM] | IC50 [3] [nM] | Relative potency [4]
CCn1ccc2cccc(C(c3ccc(Br)cc3)n3ccnc3)c21 (stereo unspecified) | 29 | 70 |  | 
CCN1CCc2cc(Br)cc(C(c3ccc(F)cc3)n3ccnc3)c21 (stereo unspecified) | 8 | 90 |  | 
CCn1ccc2cccc(C(c3cccc(Cl)c3)n3ccnc3)c21 (stereo unspecified) | 43 |  |  | 
CCN1CCc2cccc(C(c3cccc(Cl)c3)n3ccnc3)c21 (stereo unspecified) | 38 |  |  | 
CCN1CCc2cc(Cl)cc(C(c3ccc(F)cc3)n3ccnc3)c21 (stereo unspecified) | 23 |  |  | 
CCn1ccc2cccc(C(c3ccc(Cl)cc3)n3ccnc3)c21 (stereo unspecified) | 29 |  |  | 
CCN1CCc2cccc(C(c3ccc(F)cc3)n3ccnc3)c21 (stereo unspecified) | 37 |  | 61.5 | 
CCn1ccc2cc(Br)cc(C(c3ccc(F)cc3)n3ccnc3)c21 (stereo unspecified) | 9 | 200 |  | 
CCN1CCc2cccc(C(c3ccc(F)cc3)n3cncn3)c21 (stereo unspecified) |  | 2900 |  | 10
CCn1ccc2cccc(C(c3ccc(F)cc3)n3ccnc3)c21 (stereo unspecified) | 37 | 62 |  | 
